In assay [1] the test system is CCRF-CEM. Nature of the assay: Cell cycle arrest in human CEM cells assessed as accumulation at G2/M phase at 5 to 50 uM after 24 hrs using propidium iodide staining by flow cytometric analysis. The assay is classed as functional, cell-based.
In assay [2] the test system is CCRF-CEM. Nature of the assay: Cell cycle arrest in human CEM cells assessed as decrease of procaspase 3 level after 24 hrs by Western blotting analysis. Format: functional, cell-based. For orientation: A western blot detects proteins with antibodies after separation by electrophoresis.
Assay [3] relates to CCRF-CEM. Nature of the assay: Cell cycle arrest in human CEM cells assessed as increase of cleaved of PARP level at 50 uM after 24 hrs by Western blotting analysis. The assay is classed as functional, cell-based.
Assay [4] concerns MCF7. Nature of the assay: Cytotoxicity against human MCF7 cells after 72 hrs by calcein AM assay. Format: functional, cell-based. Particulars: MCF7, 72 h.
For assay [5], the system named is CCRF-CEM. The experiment in a line: Cell cycle arrest in human CEM cells assessed as increase of cleaved of PARP level after 24 hrs by Western blotting analysis. The assay is classed as functional, cell-based.
For assay [6], the system named is CCRF-CEM. Nature of the assay: Cell cycle arrest in human CEM cells assessed as decrease of procaspase 3 level at 50 uM after 24 hrs by Western blotting analysis. Format: functional, cell-based.
In assay [7] the test system is CCRF-CEM. Nature of the assay: Induction of apoptosis in human CEM cells assessed as increase of caspase 3/7 activity using Ac-DEVD-AMC as substrate at 50 uM after 24 hrs relative to control. Format: functional.
Assay [8] has as its system CCRF-CEM. Nature of the assay: Cell cycle arrest in human CEM cells assessed as accumulation at G1 phase after 24 hrs using propidium iodide staining by flow cytometric analysis. The assay is classed as functional, cell-based.
The subject of assay [9] is CCRF-CEM. Nature of the assay: Cell cycle arrest in human CEM cells assessed as accumulation at sub-G1 phase at 5 to 50 uM after 24 hrs using propidium iodide staining by flow cytometric analysis. Format: functional, cell-based. (In general: A flow cytometer gives signals particle by particle.)
For assay [10], the system named is HeLa. The experiment in a line: Cytotoxicity against human HeLa cells after 72 hrs by calcein AM assay. The assay is classed as functional, cell-based.
In assay [11] the test system is CCRF-CEM. The experiment in a line: Cell cycle arrest in human CEM cells assessed as accumulation at G0/G1 phase at 5 to 50 uM after 24 hrs using propidium iodide staining by flow cytometric analysis. Format: functional, cell-based.
Assay [12] deals with CCRF-CEM. Nature of the assay: Cytotoxicity against human CEM cells after 72 hrs by calcein AM assay. The assay is classed as functional, cell-based.
The test system of assay [13] is BJ. Nature of the assay: Cytotoxicity against human BJ cells after 72 hrs by calcein AM assay. Format: cell-based.

SMILES strings stand for the structures. Activity calls are given as the source filed them. No cut-off for these calls is given here. Some results are limits rather than exact numbers.

In general, IC50 refers to the concentration that gives 50% inhibition. In the case of `C/C=C(\C[C@@H](C)CO)C(=O)[C@@H](C)[C@H]1[C@@H](OC(C)=O)C[C@H]2[C@@H]3CC=C4C[C@@H](OC(C)=O)CC[C@]4(C)[C@H]3CC[C@]12C`, the outcome in assay [1], in assay [3], in assay [6], in assay [9] and in assay [11] was Active. The Activity entry in assay [2], in assay [5] and in assay [8] was “Dose-dependent effect” each time. Moreover, the IC50 in [4] was > 50 µM; in assay [10] it was > 50 µM; in assay [12], 11.1 µM; in assay [13], > 50 µM. The “fold change (FC)” value in [7] was 2.4.

Regarding `CC(=O)O[C@H]1CC[C@@]2(C)C(=CC[C@H]3[C@@H]4C[C@H](OC(C)=O)[C@H]([C@H](C)C(=O)C5=C(C)OC[C@H](C)C5)[C@@]4(C)C(=O)C[C@@H]32)C1`, the IC50 in assay [4] was 47.1 µM; in [10], > 50 µM; in assay [12], 10.5 µM; in [13], > 50 µM.

Take `CC(=O)O[C@H]1CC[C@@]2(C)[C@@H](CC[C@@H]3[C@@H]2CC[C@]2(C)[C@@H]([C@H](C)C(=O)C4=C(C)OC[C@H](C)C4)[C@@H](OC(C)=O)C[C@@H]32)C1`: the IC50 in assay [4] was 35.7 µM; in assay [10] it was > 50 µM; in assay [12], 20.7 µM; in assay [13] it was > 50 µM.

As to `C/C=C(\C[C@@H](C)CO)C(=O)[C@@H](C)[C@H]1[C@@H](OC(C)=O)C[C@H]2[C@@H]3CC=C4C[C@@H](OC(C)=O)CC[C@]4(C)[C@H]3CC(=O)[C@]12C`, the IC50 is > 50 µM in assay [4], > 50 µM in assay [10], 19 µM in assay [12] and > 50 µM in assay [13].

Take `C/C=C(\C[C@@H](C)CO)C(=O)[C@@H](C)[C@H]1[C@@H](OC(C)=O)C[C@H]2[C@@H]3CC[C@H]4C[C@@H](OC(C)=O)CC[C@]4(C)[C@H]3CC[C@]12C`: the outcome in assay [1], in assay [3], in assay [6], in assay [9] and in assay [11] was Active. Moreover, the Activity entry in assay [2], in assay [5] and in [8] was “Dose-dependent effect” each time. For the same compound, the IC50 in [4] was 14.7 µM; in [10] it was > 50 µM; in assay [12], 5.9 µM; in [13], > 50 µM. Moreover, the “fold change (FC)” value in [7] is 4.3.

With `CC(=O)O[C@H]1CC[C@@]2(C)C(=CC[C@H]3[C@@H]4C[C@H](OC(C)=O)[C@H]([C@H](C)C(=O)C5=C(C)OC[C@H](C)C5)[C@@]4(C)CC[C@@H]32)C1`, the IC50 in assay [4] was > 50 µM; in assay [10], > 50 µM; in assay [12], 40.9 µM; in assay [13], > 50 µM.

As for `CC(C)CCC[C@@H](C)[C@H]1CC[C@H]2[C@@H]3CC=C4C[C@@H](O)CC[C@]4(C)[C@H]3CC[C@]12C` [CHOLESTEROL], the IC50 in assay [4], in [10], in assay [12] and in assay [13] was > 50 µM throughout.

Consider `CC(=O)O[C@H]1CC[C@@]2(C)C(=CC[C@H]3[C@@H]4C[C@H](OC(C)=O)[C@H]([C@H](C)C(=O)C5=C(C)OC[C@H](C)C5)[C@@]4(C)[C@H](O)C[C@@H]32)C1`, for which the IC50 in [4] was > 50 µM; in assay [10], > 50 µM; in assay [12], 13.9 µM; in assay [13], > 50 µM.

The values are drawn from ChEMBL document CHEMBL1955764, “Synthesis and biological activity of 23-ethylidene-26-hydroxy-22-oxocholestane derivatives from spirostanic sapogenins” (Eur J Med Chem, 2012).
